Results from patent US20230183293A1, “METHODS OF TREATING OR PREVENTING CORONAVIRUS INFECTION” (priority 2021, published 2023).
Like-named read-outs stand apart in the source and are kept apart here. Marks after values point to notes of the source that are not given here.

Legend:
SARS-CoV-2 [1] = assay: CPE reduction assay in Vero E6 cells with pharmaceutical formulations (Example 8); type: cell-based
Vero E6 cells [2] = conditions: FIG. 1B
[3] = Phase 2b study in de novo kidney transplant recipients (Example 3); type: in vivo, human; conditions: for NODAT (new onset of diabetes after transplant) incidence: 6 month
Description: De novo kidney transplant recipients were enrolled into a 6 month, Phase 2b, multi-center, randomized, open-label study. […] In addition, all subjects received induction immunosuppression with intravenous daclizumab or basiliximab (dosed per product labeling) and received concomitant treatment during the study with MMF and corticosteroids. […] Adverse reactions were recorded and renal graft rejection was assessed based on Banff classification. At 3-month and 6-month time points, adverse reactions were analyzed. Graft survival and patient survival were also recorded at the 6-month time point.

in vitro = conditions: African green monkey
Calu-3 cells [4] = conditions: plastic, Calu-3, FIG. 6D
SARS-CoV-2 [5] = conditions: prednisone + voclosporin, expected
norovirus = conditions: compared with CsA; cited from earlier work
calcineurin = conditions: in vitro and in vivo; Kuglstatter et al.; cited from earlier work
SARS-CoV-2 [6] = assay: microbe, parasite or virus in culture; type: cell-based
Vero E6 cells [7] = assay: Cytotoxicity in mock-infected Vero E6 cells, pure powder stocks (Example 11); type: cell-based, African green monkey; conditions: solution from pure powder
Description: CPE reductions assays in Vero E6 cells were performed, generally as described above, except that pre-incubation of cells with the tested compounds lasted 30 minutes. Plates were incubated for three days at 37° C. and cell viability was determined using a colorimetric assay, measuring the absorption at 495 nm. The EC50 and CC50 of each compound was determined and analysis of the resultant data using non-linear regression. For each compound, at least two independent experiments (each in quadruplicate) were completed.
CPE reduction assays were performed as described above, using high purity powders of immunosuppressive drugs solubilized in DMSO. Test stock solutions were prepared from pure powders of each compound. In the case of Neoral (CsA microemulsion), CsA powder, the most commonly used CsA derivative in KTR treatment, was evaluated.

SARS-CoV-2 [8] = type: cell-based
[9] = type: physicochemical
SARS-CoV-2 [10] = assay: CPE reduction assay in Vero E6 cells with pharmaceutical formulations dissolved in DMSO (Example 6); type: cell-based; conditions: Severe acute respiratory syndrome coronavirus 2, Vero C1008, 72 h; read-out: EC50, inhibition of virus-induced cell death
[11] = Binding to plastic labware (coated or uncoated 96-well plates), remaining concentration by LC-MS/MS (Example 12); type: physicochemical; conditions: for Conc: 2 μM VCS
Description: Plastic labware was coated with three different coating agents: 100 mg/ml bovine serum albumin in PBS (BSA; Sigma), 1% polyethylene glycol 3350 in MilliQ water (PEG-3350; Sigma) and 0.2% polysorbate 40 in MilliQ water (Tween40; Fluka). In addition, the plastic materials with VCS by treating them with a 500 mM VCS solution in DMSO (Sigma). Labware, including all tubes, tips and culture plastics, was filled with blocking solution and incubated for 2 h at room temperature with rocking to homogenously coat the surfaces. After rinsing twice with MilliQ water, the items were left to dry at room temperature until further use in experiments. Solutions of 0.2 and 2 μM of VCS were prepared in EMEM-2% FCS and 100 μl of each VCS solution was incubated in coated 96-well plates. After a 2 h incubation at 37° C. the remaining VCS concentration was measured by validated LC-MS/MS.

Calu-3 cells [12] = conditions: with cells, glass
SARS-CoV-2 [13] = assay: SARS-CoV-2 viral load reduction assay in Vero E6 cells, plaque assay and NSP4 staining (Example 2); type: cell-based
SARS-CoV-2 [14] = assay: microbe, parasite or virus in culture; type: cell-based; remark: listed apart in the source
[15] = VCS concentration after incubation in glass without cells, LC-MS/MS; type: physicochemical; conditions: for Conc: 3.2 μM supplied solution, without cells, glass

## C=C/C=C/C[C@@H](C)[C@@H](O)[C@H]1C(=O)N[C@@H](CC)C(=O)N(C)CC(=O)N(C)[C@@H](CC(C)C)C(=O)N[C@@H](C(C)C)C(=O)N(C)[C@@H](CC(C)C)C(=O)N[C@@H](C)C(=O)N[C@H](C)C(=O)N(C)[C@@H](CC(C)C)C(=O)N(C)[C@@H](CC(C)C)C(=O)N(C)[C@@H](C(C)C)C(=O)N1C [voclosporin]
SARS-CoV-2 [1]
  times lower EC50 compared to the other compounds tested: 18-45 times
SARS-CoV-2 [1]; Severe acute respiratory syndrome coronavirus 2, Vero C1008, 72 h, Vero E6, 3 days, read-out: EC50, inhibition of virus-induced cell death
  EC50: 0.22 ± 0.01 µM
Vero E6 cells [2]; batch 4
  concentrations without toxicity to uninfected cells: up to 10 μM
Vero E6 cells [2]; unit not given
  concentrations without toxicity to uninfected cells: under 2
[3]; high dose
  NODAT (new onset of diabetes after transplant) incidence: 17.7%
[3]; high dose, listed as Voclosporin
  NODAT (new onset of diabetes after transplant) incidence: 17.7%
[3]; high dose, N = 87, 6 month post-transplantation
  Central BPAR (biopsy proven acute rejection), patients (incidence): 2 (2.3%)
[3]; high-dose 0.8 mg/kg BID, months 0-3
  blood trough level: 60 to 85 ng/mL
[3]; high-dose 0.8 mg/kg BID, months 3-6
  blood trough level: 31 to 40 ng/mL
[3]; low dose
  NODAT (new onset of diabetes after transplant) incidence: 1.6%
[3]; low dose, listed as Voclosporin
  NODAT (new onset of diabetes after transplant) incidence: 1.6%
[3]; low dose, N = 84, 6 month post-transplantation
  Central BPAR (biopsy proven acute rejection), patients (incidence): 9 (10.7%)
[3]; low-dose 0.4 mg/kg BID, months 0-3
  blood trough level: 20 to 30 ng/mL
[3]; low-dose 0.4 mg/kg BID, months 3-6
  blood trough level: 11 to 20 ng/mL
[3]; mid dose
  NODAT (new onset of diabetes after transplant) incidence: 5.7%
[3]; mid dose, listed as Voclosporin
  NODAT (new onset of diabetes after transplant) incidence: 5.7%
[3]; mid dose, N = 77, 6 month post-transplantation
  Central BPAR (biopsy proven acute rejection), patients (incidence): 7 (9.1%)
[3]; mid-dose 0.6 mg/kg BID, months 0-3
  blood trough level: 35 to 50 ng/mL
In vitro
  CC50: ~4 µM
Calu-3 cells [4]
  cytotoxicity: did not
SARS-CoV-2 [5]; 6 capsules of 7.9 mg BID
  SARS-CoV-2 viral load and CPEs compared to the tacrolimus group: more efficacious reduction in viral load, and less severe CPEs
SARS-CoV-2 [5]
  graft rejections, diabetes and adverse effects compared to the tacrolimus group: comparable or lower incidences of graft rejections, diabetes and adverse effects
norovirus
  inhibition of norovirus replication: inhibit norovirus replication in a CypA-dependent manner and more effectively than CsA
calcineurin
  increase of binding affinity to calcineurin compared to CsA: up to five-fold
SARS-CoV-2 [6]
  protection of SARS-CoV-2 infected cells compared with the pharmaceutical formulation: did not confer the same level of protection
Vero E6 cells [7]
  cytotoxicity in mock-infected cells compared with the pharmaceutical formulation: less cytotoxicity
SARS-CoV-2 [8]
  reduction in SARS-CoV-2 infectious progeny titers: more than 1.5 log
[9]; after 24 h treatment with 25 μM VCS, standard plastic labware
  detected concentration in the medium of infected cells: 0.68 µM
[9]; considering a […]% reduction due to cellular binding or uptake
  VCS lost due to plastic binding: 90%
[9]; plastic labware
  bioavailable amount of what was added initially when using plastic: ~10%
SARS-CoV-2 [10]
  EC50: 0.27 µM
[11]; 100 mg/ml BSA solution coating, 0 h
  Conc: 550 ± 210 nM
[11]; 100 mg/ml BSA solution coating, 2 h
  Conc: 100 ± 40 nM
[11]; 0.2% Tween-40 solution coating, 0 h
  Conc: 560 ± 350 nM
[11]; 0.2% Tween-40 solution coating, 2 h
  Conc: 90 ± 40 nM
[11]; 1% PEG-3350 solution coating, 0 h
  Conc: 510 ± 160 nM
[11]; 1% PEG-3350 solution coating, 2 h
  Conc: 90 ± 20 nM
[11]; Uncoated plastic, 0 h
  Conc: 560 ± 250 nM
[11]; Uncoated plastic, 2 h
  Conc: 130 ± 70 nM
[11]; t=0
  original stock concentration recovered: ~27%
Calu-3 cells [12]; 0.2 μM supplied solution, 0 h
  Conc: 0.33 µM
Calu-3 cells [12]; 0.2 μM supplied solution, 24 h, below detection limit
  Conc: <0.07* μM
Calu-3 cells [12]; 0.4 μM supplied solution, 0 h
  Conc: 0.45 µM
Calu-3 cells [12]; 0.4 μM supplied solution, 24 h
  Conc: 0.10 µM
Calu-3 cells [12]; 0.8 μM supplied solution, 0 h
  Conc: 0.99 µM
Calu-3 cells [12]; 0.8 μM supplied solution, 24 h
  Conc: 0.15 µM
Calu-3 cells [12]; 1.6 μM supplied solution, 0 h
  Conc: 1.77 µM
Calu-3 cells [12]; 1.6 μM supplied solution, 24 h
  Conc: 0.35 µM
Calu-3 cells [12]; 3.2 μM supplied solution, 0 h
  Conc: 2.91 µM
Calu-3 cells [12]; 3.2 μM supplied solution, 24 h
  Conc: 0.82 µM
SARS-CoV-2 [13]; Vero E6, FIG. 2A, unit not given
  concentration above which viral titer was reduced to the limit of detection: above 1.00
SARS-CoV-2 [13]; Vero E6, FIG. 2C
  amount of SARS-CoV-2 infected cells, fluorescent staining of viral NSP4: reduced the amount of SARS-CoV-2 infected cells in a dose-dependent manner
SARS-CoV-2 [14]; Severe acute respiratory syndrome coronavirus 2, Vero C1008, FIG. 1C, Vero E6 CPE reduction, read-out: EC50 inhibition of SARS-CoV-2
  EC50: ~0.4 µM
SARS-CoV-2 [14]; Vero E6, 3 days
  concentration preserving viability of infected cells at level of mock-infected/uninfected cells: 0.8 µM
[15]; 0 h
  Conc: 2910 nM
[15]; 24 h
  Conc: 2790 nM
[15]; 24 h at 37° C. in glass without cells
  loss of compound from solution: No significant loss
